The target of the test is T1, MyD88 signaling complex (Homo sapiens, UniProt P51617+Q99836+Q9NWZ3).
T1 construct: abrogated IRAK1, 2 and 4 recruitment to the MyD88 signaling complex in human monocytes; endogenous in cells; host or cells: primary human monocytes, LPS-stimulated
Briefly: IRAK immunoprecipitations from LPS-stimulated human monocytes. Conditions: 15 μM, LPS 100 ng/ml. Format: cell-based. As to the method: Cell were pre-treated with Pen or P7-Pen (15 μM) for 30 min before addition of LPS (100 ng/ml) for specified time periods. Precipitations were performed using sheep anti-IRAK4 (A), anti-IRAK1 (B) and anti-IRAK2 (C) polyclonal antibodies covalently bound to magnetic beads, followed by Western blot analysis of lysates and precipitated proteins.
Pre-treatment of monocytes with P7-Pen abrogated recruitment of all tested IRAKs (1,2 and 4) to MyD88 (FIG. 28). This could be achieved by the peptide disrupting the Mal-MyD88 interaction, Mal-IRAK interactions or MyD88-IRAK interactions. Since IL-1R-initiated signalling through the Myddosome complex is not inhibited by the P7 peptide (see above), it is most likely that P7 interferes with Mal-IRAK interactions or the Mal-MyD88 interaction, rather than MyD88-IRAK interactions (since Mal is not involved in IL-1R signaling).

T1 sequence (Q99836 whole entry): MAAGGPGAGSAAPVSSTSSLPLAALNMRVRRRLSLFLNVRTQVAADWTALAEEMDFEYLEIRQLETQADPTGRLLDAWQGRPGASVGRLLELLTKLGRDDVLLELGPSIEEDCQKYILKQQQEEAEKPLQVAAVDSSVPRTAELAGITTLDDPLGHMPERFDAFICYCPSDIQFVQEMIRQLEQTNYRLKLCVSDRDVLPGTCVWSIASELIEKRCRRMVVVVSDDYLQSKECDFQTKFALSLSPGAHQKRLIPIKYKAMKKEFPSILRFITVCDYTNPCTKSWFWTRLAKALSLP
T1 sequence (P51617 whole entry): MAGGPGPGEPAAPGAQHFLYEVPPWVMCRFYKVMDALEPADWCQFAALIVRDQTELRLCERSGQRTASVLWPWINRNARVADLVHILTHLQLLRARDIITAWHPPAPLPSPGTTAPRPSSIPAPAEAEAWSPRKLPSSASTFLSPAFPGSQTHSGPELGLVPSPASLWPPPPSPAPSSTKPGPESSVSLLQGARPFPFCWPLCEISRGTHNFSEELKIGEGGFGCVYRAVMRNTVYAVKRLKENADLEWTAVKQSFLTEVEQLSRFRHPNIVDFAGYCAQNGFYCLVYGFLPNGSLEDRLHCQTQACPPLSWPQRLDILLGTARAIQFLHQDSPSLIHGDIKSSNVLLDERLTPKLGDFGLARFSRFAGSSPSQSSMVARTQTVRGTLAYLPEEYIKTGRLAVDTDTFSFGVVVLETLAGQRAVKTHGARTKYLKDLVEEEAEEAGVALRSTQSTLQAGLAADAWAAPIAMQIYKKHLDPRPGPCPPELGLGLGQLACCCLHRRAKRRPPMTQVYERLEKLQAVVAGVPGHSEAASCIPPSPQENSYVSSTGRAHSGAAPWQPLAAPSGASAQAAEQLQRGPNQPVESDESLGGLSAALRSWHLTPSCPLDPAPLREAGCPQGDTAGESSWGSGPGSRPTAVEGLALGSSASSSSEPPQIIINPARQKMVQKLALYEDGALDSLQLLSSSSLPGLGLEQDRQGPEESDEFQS
T1 sequence (Q9NWZ3 whole entry): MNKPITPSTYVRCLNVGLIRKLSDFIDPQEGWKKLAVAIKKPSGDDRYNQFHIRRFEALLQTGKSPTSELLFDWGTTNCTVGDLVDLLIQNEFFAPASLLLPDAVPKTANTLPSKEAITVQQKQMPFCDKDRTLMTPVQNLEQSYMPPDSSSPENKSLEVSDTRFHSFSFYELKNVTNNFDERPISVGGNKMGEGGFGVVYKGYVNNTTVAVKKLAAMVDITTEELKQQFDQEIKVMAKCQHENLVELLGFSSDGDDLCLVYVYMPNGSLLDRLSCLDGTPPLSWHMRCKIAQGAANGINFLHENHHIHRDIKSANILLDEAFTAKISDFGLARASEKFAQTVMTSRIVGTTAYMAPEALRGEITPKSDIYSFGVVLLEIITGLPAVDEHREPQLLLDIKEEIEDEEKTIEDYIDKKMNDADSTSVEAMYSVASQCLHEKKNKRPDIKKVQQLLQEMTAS

In the case of “Ac-ITVYASVTLTGRQIKIWFQNRRMKWKK-NH2 [Peptide P7-Pen]”, the “recruitment of IRAKs (1, 2 and 4) to MyD88” value was “abrogated”.

For the origin of these results see patent publication US20230220047A1, “PEPTIDES FOR TREATMENT OF SEPSIS AND CANCER” (NORWEGIAN UNIVERSITY OF SCIENCE AND TECHNOLOGY (NTNU), priority 2020, published 2023).
